Data: ChEMBL document CHEMBL1201862, “PubChem BioAssay data set” (2004)
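96-well plates; 48 h exposure; 5 concentrations. Endpoints by linear interpolation between flanking doses. Not reached: highest tested concentration assigned. GI50 = concentration required for 50% inhibition of growth.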 The source made the active and inactive calls. No stated cut-off is given here; in the data, active = GI50 up to about 1.1 µM and inactive = higher.

Columns and labels:
Experiment in all cases: inhibition of tumour cell growth, NCI panel, 48 h
786-0 = test system: 786-0
A549 = test system: A549
ACHN = test system: ACHN
BT-549 = test system: BT-549
CAKI-1 = test system: CAKI-1
CCRF-CEM = test system: CCRF-CEM
COLO 205 = test system: COLO 205
DU-145 = test system: DU-145
EKVX = test system: EKVX
HCC 2998 = test system: HCC 2998
HCT-116 = test system: HCT-116
HCT-15 = test system: HCT-15
HL-60 = test system: HL-60
HOP-62 = test system: HOP-62
HOP-92 = test system: HOP-92
HT-29 = test system: HT-29
Hs-578T = test system: Hs-578T
IGROV-1 = test system: IGROV-1
KM12 = test system: KM12
LOX IMVI = test system: LOX IMVI
M14 = test system: M14
MCF7 = test system: MCF7
MDA-MB-231 = test system: MDA-MB-231
MDA-MB-435 = test system: MDA-MB-435
MOLT-4 = test system: MOLT-4
NCI-H226 = test system: NCI-H226
NCI-H23 = test system: NCI-H23
NCI-H460 = test system: NCI-H460
NCI-H522 = test system: NCI-H522
NCI/ADR-RES = test system: NCI/ADR-RES
OVCAR-3 = test system: OVCAR-3
OVCAR-4 = test system: OVCAR-4
OVCAR-5 = test system: OVCAR-5
OVCAR-8 = test system: OVCAR-8
PC-3 = test system: PC-3
SF-268 = test system: SF-268
SF-295 = test system: SF-295
SF-539 = test system: SF-539
SK-MEL-28 = test system: SK-MEL-28
SK-MEL-2 = test system: SK-MEL-2
SK-MEL-5 = test system: SK-MEL-5
SK-OV-3 = test system: SK-OV-3
SN12C = test system: SN12C
SNB-19 = test system: SNB-19
SNB-75 = test system: SNB-75
SW-620 = test system: SW-620
TK-10 = test system: TK-10
U-251 = test system: U-251
UACC-257 = test system: UACC-257
UACC-62 = test system: UACC-62
UO-31 = test system: UO-31
A498 = test system: A498
K562 = test system: K562
RPMI-8226 = test system: RPMI-8226
RXF 393 = test system: RXF 393
SR = test system: SR
T47D = test system: T47D

COC(=O)C(=O)C(C(=O)C(=O)Nc1ccc(Cl)cc1Cl)c1nc2ccc(Cl)cc2nc1O (centres undefined)
GI50 (786-0): > 100 µM (inactive)
GI50 (A549): > 100 µM (inactive)
GI50 (ACHN): > 100 µM (inactive)
GI50 (BT-549): > 100 µM (inactive)
GI50 (CAKI-1): > 100 µM (inactive)
GI50 (CCRF-CEM): 69.7 µM (inactive)
GI50 (COLO 205): > 100 µM (inactive)
GI50 (DU-145): > 100 µM (inactive)
GI50 (EKVX): 17.1 µM (inactive)
GI50 (HCC 2998): > 100 µM (inactive)
GI50 (HCT-116): > 100 µM (inactive)
GI50 (HCT-15): > 100 µM
GI50 (HL-60): > 100 µM (inactive)
GI50 (HOP-62): > 100 µM (inactive)
GI50 (HOP-92): 58.5 µM (inactive)
GI50 (HT-29): > 100 µM (inactive)
GI50 (Hs-578T): > 100 µM (inactive)
GI50 (IGROV-1): 58.7 µM (inactive)
GI50 (KM12): > 100 µM (inactive)
GI50 (LOX IMVI): > 100 µM (inactive)
GI50 (M14): > 100 µM (inactive)
GI50 (MCF7): > 100 µM (inactive)
GI50 (MDA-MB-231): > 100 µM (inactive)
GI50 (MDA-MB-435): > 100 µM (inactive)
GI50 (MOLT-4): 82.8 µM (inactive)
GI50 (NCI-H226): 49 µM (inactive)
GI50 (NCI-H23): > 100 µM (inactive)
GI50 (NCI-H460): > 100 µM (inactive)
GI50 (NCI-H522): > 100 µM (inactive)
GI50 (NCI/ADR-RES): > 100 µM (inactive)
GI50 (OVCAR-3): > 100 µM (inactive)
GI50 (OVCAR-4): > 100 µM (inactive)
GI50 (OVCAR-5): > 100 µM (inactive)
GI50 (OVCAR-8): > 100 µM (inactive)
GI50 (PC-3): > 100 µM (inactive)
GI50 (SF-268): > 100 µM (inactive)
GI50 (SF-295): > 100 µM (inactive)
GI50 (SF-539): > 100 µM (inactive)
GI50 (SK-MEL-28): > 100 µM (inactive)
GI50 (SK-MEL-2): > 100 µM (inactive)
GI50 (SK-MEL-5): > 100 µM (inactive)
GI50 (SK-OV-3): > 100 µM (inactive)
GI50 (SN12C): > 100 µM (inactive)
GI50 (SNB-19): > 100 µM (inactive)
GI50 (SNB-75): 65.2 µM (inactive)
GI50 (SW-620): > 100 µM (inactive)
GI50 (TK-10): 69.8 µM (inactive)
GI50 (U-251): > 100 µM (inactive)
GI50 (UACC-257): > 100 µM (inactive)
GI50 (UACC-62): > 100 µM (inactive)
GI50 (UO-31): 28.4 µM (inactive)

N#Cc1ccc2[nH]c3c(c2c1)CC(=O)Nc1ccccc1-3 [PAULLONE 2]
GI50 (786-0): > 100 µM (inactive)
GI50 (A498): > 100 µM (inactive)
GI50 (A549): > 100 µM (inactive)
GI50 (ACHN): > 100 µM (inactive)
GI50 (BT-549): > 100 µM (inactive)
GI50 (CAKI-1): > 100 µM (inactive)
GI50 (CCRF-CEM): > 100 µM (inactive)
GI50 (COLO 205): > 100 µM (inactive)
GI50 (EKVX): > 100 µM (inactive)
GI50 (HCC 2998): > 100 µM (inactive)
GI50 (HCT-116): 21.5 µM (inactive)
GI50 (HCT-15): > 100 µM
GI50 (HL-60): > 100 µM (inactive)
GI50 (HOP-62): > 100 µM (inactive)
GI50 (HOP-92): > 100 µM (inactive)
GI50 (HT-29): > 100 µM (inactive)
GI50 (Hs-578T): > 100 µM (inactive)
GI50 (IGROV-1): 99.8 µM (inactive)
GI50 (K562): > 100 µM (inactive)
GI50 (LOX IMVI): > 100 µM (inactive)
GI50 (M14): > 100 µM (inactive)
GI50 (MCF7): > 100 µM (inactive)
GI50 (MDA-MB-231): > 100 µM (inactive)
GI50 (MDA-MB-435): > 100 µM (inactive)
GI50 (MOLT-4): > 100 µM (inactive)
GI50 (NCI-H226): > 100 µM (inactive)
GI50 (NCI-H23): > 100 µM (inactive)
GI50 (NCI-H460): > 100 µM (inactive)
GI50 (NCI-H522): 28.8 µM (inactive)
GI50 (NCI/ADR-RES): > 100 µM (inactive)
GI50 (OVCAR-3): > 100 µM (inactive)
GI50 (OVCAR-4): > 100 µM (inactive)
GI50 (OVCAR-5): > 100 µM (inactive)
GI50 (OVCAR-8): > 100 µM (inactive)
GI50 (PC-3): > 100 µM (inactive)
GI50 (RPMI-8226): > 100 µM (inactive)
GI50 (RXF 393): > 100 µM (inactive)
GI50 (SF-268): > 100 µM (inactive)
GI50 (SF-295): > 100 µM (inactive)
GI50 (SF-539): > 100 µM (inactive)
GI50 (SK-MEL-28): > 100 µM (inactive)
GI50 (SK-MEL-2): > 100 µM (inactive)
GI50 (SK-MEL-5): > 100 µM (inactive)
GI50 (SNB-19): > 100 µM (inactive)
GI50 (SNB-75): > 100 µM (inactive)
GI50 (SR): 2.9 µM (inactive)
GI50 (SW-620): > 100 µM (inactive)
GI50 (T47D): > 100 µM (inactive)
GI50 (TK-10): > 100 µM (inactive)
GI50 (U-251): > 100 µM (inactive)
GI50 (UACC-257): > 100 µM (inactive)
GI50 (UACC-62): > 100 µM (inactive)
GI50 (UO-31): > 100 µM (inactive)
